Assay results taken from patent US20240398738A1, “MANIPULATION OF THE RETINOIC ACID SIGNALING PATHWAY” (THE REGENTS OF THE UNIVERSITY OF CALIFORNIA, priority 2017, published 2024).

Experiments:
RGCs in rd1 retina [1] = assay: YO-PRO-1 loading assay (dye permeability of RGCs) in rd1 retina after intravitreal injection; type: in vivo, mouse; conditions: for Yo-Pro-1 labeling of rd1-RGCs, result in words: rd1, intravitreal injection, compared to vehicle-injected; for percentage of YO-PRO-1 positive cells (fraction of RGC nuclei labeled): rd1 mice, intravitreal injection, measured 3-7 days after, BMS-493 500 nM, DEAB 20 uM, citral 50 uM, mean±SEM
Experimental: (§1) Intravitreal Injections. Before injection, mice were anesthetized with isoflurane (2%) and their pupils were dilated with tropicamide (1%) and phenylephrine (2.5%). Proparacaine (0.5%) was used as a topical analgesic. Genteal was applied under a glass coverslip to keep the cornea lubricated. An incision was made through the sclera below the ora serrata with a 30G needle and ˜1 μl of solution was injected into the vitreous with a blunt-ended 33G Hamilton syringe. After injection, the antibiotic tobramycin (0.3%) was applied to the eye. Final drug concentrations after intravitreal injection were: all-trans retinoic acid (ATRA, 100 nM), liarozole (100 μM), diethylaminobenzaldehyde (DEAB, 20 μM), citral (50 μM), BMS-493 (500 nM), and retinaldehyde (1 μM). The above values correspond to the final concentration in the eye after injecting 1 μl of drug accounting for a 5-fold dilution. An injection of PBS including 1% DMSO was used as vehicle control.
(§2) Yo-PRO-1 Loading Assay. After dissection, retinas were cut into thirds and mounted on a windowed nitrocellulose filter paper. Retinas were treated with 200 nM Yo-PRO-1 (Life Technologies) in oxygenated ACSF for 15 minutes, followed by treatment and then treated with nuclear ID (Enzo Life Sciences) at a 1:500 dilution for 3 minutes. ACSF was perfused continuously at 3 ml/min for a period of 5 minutes to wash away excess dye. In experiments employing TNP-ATP (200 μm), the retinas was pretreated with the compound for ten minutes before beginning YO-PRO-1 treatment.
(§3) Image analysis. All image analysis was performed using ImageJ or Fiji software (55,56). Yo-PRO-1 loading assay, ROIs were manually selected using the nuclear-ID channel based upon morphological characteristics. This was performed after computationally flattening the retina by performing a maximum Z projection onto a single plane. Following this, a background subtraction was performed with a rolling radius of 50 pixels. Cells identified as vascular endothelial cells or pericytes were not included in the analysis. This was confirmed using transillumination. A threshold for YO-PRO-1 loading was established by measuring the level of autofluorescence of untreated retinas in each channel and finding a baseline value with +2SD being the threshold for a YO-PRO-1 positive cell. Nuclear-ID was used to count the total number of cells within a field of view. The percentage of cells above the threshold was then calculated for comparison. For analysis of RARE double reporter virus assay, ROIs were manually selected on the RFP channel first and then superimposed to the GFP channel. Single cell values for both RFP and GFP were filtered by using a RFP minimum threshold established in naive unlabeled retinas.
(§4) Injections. Intravitreal injections: Adult mice and rats were intravitreally injected with drugs or viruses. Before injection, animals were anesthetized with isoflurane (2%) and their pupils were dilated with tropicamide (1%) and phenylephrine (2.5%). Proparacaine (0.5%) was used as a topical analgesic. Genteal was applied under a glass coverslip to keep the cornea lubricated. An incision was made through the sclera below the ora serrata with a 30G needle. Solutions were injected into the vitreous with a blunt-ended 33G Hamilton syringe. After injection, the antibiotic tobramycin (0.3%) was applied to the eye. Final drug concentrations (after 5-fold dilution in the vitreous) were: 100 nM all-trans retinoic acid (ATRA), 100 μM liarozole (24), 20 μM diethylaminobenzaldehyde (DEAB) (28,93), 50 μM citral, 500 nM BMS 493 (85), 1 μM retinaldehyde, and vehicle comprising of 1× phosphate buffered saline (PBS) containing 1% dimethyl sulfoxide (DMSO). Intravitreal injections were performed using AAV2 serotype only. WT and rd1 mice were injected with the RAR-reporter virus or the RARDN virus, at age 1-1.5 month-old. WT and s334ter rats were injected with the RAR-reporter virus at age 3-4 month-old. Final volume of injections was 1-1.5 μL for mice and 5 μL for rats. […]

RGCs in WT retina [2] = assay: YO-PRO-1 loading assay (dye permeability of RGCs) in WT retina after intravitreal injection; type: in vivo, mouse; conditions: for percentage of YO-PRO-1 positive cells: intravitreal injection 3-7 days before, ATRA 100 nM, liarozole 100 μM, retinaldehyde 1 μM, DEAB 20 μM; for Yo-Pro-1 labeling of WT-RGCs, result in words: WT retina, substance injected intravitreally alone
Experimental: as §1, §2, §3, §4

RGCs in rd1 retina [3] = assay: MEA recording of photoswitch (QAQ, BENAQ) photosensitization in rd1 retina; type: in vivo, mouse; conditions: rd1 retina without BMS-493, mean±SEM
Experimental: as §1
(§5) Multi Electrode Array Recordings. For extracellular recordings, a flat-mounted retina was placed ganglion cell layer down onto a 60-electrode Multi-Electrode Array (MEA 1060-2-BC, Multi-Channel Systems). After mounting the retina, photoswitches were applied for 30 min, followed by a 15 min wash. BENAQ was applied at a concentration of 100 μM and QAQ at 300 μM. A solution containing a mixture of neurotransmitter receptor blockers isolated RGCs from synaptic inputs: (in μM) 10 AP4, 40 DNQX, 30 AP5, 10 SR-95531, 50 TPMPA, 10 strychnine, and 50 tubocurarine. Extracellular spikes were high-pass filtered at 200 Hz and digitized at 20 kHz and were counted when exceeding 4 SD from the mean background voltage signal. Typically, each electrode recorded spikes from one to three individual RGCs. Principal component analysis of the spike waveforms was used for sorting spikes generated by individual cells (Offline Sorter, Plexon). Stimulation light was generated from a mercury arc lamp. Unfiltered broad spectrum light was used for BENAQ-treated retinas. Narrow band optical filters (Chroma) were used to deliver alternating intervals of 380 nm and 500 nm for stimulation of QAQ-treated as described previously (5,12). The Photoswitch Index (5) (PI) was established for individual retinas in light/darkness for treatment with BENAQ or in 380 nm/500 nm light for treatment with QAQ (11,12).
as §4, with “month-old.” for “month-old. WT and s334ter rats were injected with the RAR-reporter virus at age 3-4 month-old. Final volume of injections was 1-1.5 μL for mice and 5 μL for rats.”

RGCs in WT retina [4] = assay: MEA recording of photoswitch (QAQ, BENAQ) photosensitization in WT retina; type: in vivo, mouse
Experimental: as §1, §5
Injections. Intravitreal injections: Adult mice and rats were intravitreally injected with drugs or viruses. Before injection, animals were anesthetized with isoflurane (2%) and their pupils were dilated with tropicamide (1%) and phenylephrine (2.5%). Proparacaine (0.5%) was used as a topical analgesic. Genteal was applied under a glass coverslip to keep the cornea lubricated. An incision was made through the sclera below the ora serrata with a 30G needle. Solutions were injected into the vitreous with a blunt-ended 33G Hamilton syringe. After injection, the antibiotic tobramycin (0.3%) was applied to the eye. Final drug concentrations (after 5-fold dilution in the vitreous) were: 100 nM all-trans retinoic acid (ATRA), 100 μM liarozole (24), 20 μM diethylaminobenzaldehyde (DEAB) (28,93), 50 μM citral, 500 nM BMS 493 (85), 1 μM retinaldehyde, and vehicle comprising of 1× phosphate buffered saline (PBS) containing 1% dimethyl sulfoxide (DMSO). Intravitreal injections were performed using AAV2 serotype only. WT and rd1 mice were injected with the RAR-reporter virus or the RARDN virus, at age 1-1.5 month-old. WT and s334ter rats were injected with the RAR-reporter virus at age 3-4 month-old. Final volume of injections was 1-1.5 μL for mice and 5 μL for rats.
Multi Electrode Array Recordings. Flat-mounted retina was placed ganglion cell layer down onto a 60-electrode Multi-Electrode Array (MEA 1060-2-BC, Multi-Channel Systems). After mounting the retina was left to dark adapt for 20 minutes under constant perfusion with oxygenated saline at 34° C. 300 μM QAQ at was applied for 30 min, followed by a 5 min wash. […]

gap junctions = conditions: micromolar concentrations are required; cited from earlier work

## CC(C)=CCCC(C)=CC=O [citral]
RGCs in rd1 retina [1]
  Yo-Pro-1 labeling of rd1-RGCs, result in words: significantly reduced the percentage of rd1-RGCs labeled with Yo-Pro-1
  percentage of YO-PRO-1 positive cells (fraction of RGC nuclei labeled): 9.87±2.39%

## CC1=C(/C=C/C(C)=C/C=C/C(C)=C/C=O)C(C)(C)CCC1 [Retinaldehyde, retinaldehyde]
RGCs in WT retina [2]; WT mice, mean±SEM
  percentage of YO-PRO-1 positive cells: 14.6±2.29%
RGCs in WT retina [2]
  Yo-Pro-1 labeling of WT-RGCs, result in words: significantly increasing Yo-Pro-1 labeling above baseline

## CC[N+](CC)(CC)CC(=O)Nc1ccc(N=Nc2ccc(NC(=O)C[N+](CC)(CC)CC)cc2)cc1 [QAQ, quaternary ammonium-azobenzene-quaternary ammonium]
RGCs in rd1 retina [3]; QAQ 300 μM, 380/500 nm
  Photoswitch Index (PI) of QAQ: 0.63±0.12

## CCN(CC)c1ccc(C=O)cc1 [DEAB, diethylaminobenzaldehyde]
RGCs in rd1 retina [1]
  Yo-Pro-1 labeling of rd1-RGCs, result in words: significantly reduced the percentage of rd1-RGCs labeled with Yo-Pro-1
  percentage of YO-PRO-1 positive cells (fraction of RGC nuclei labeled): 19.77±2.32%
RGCs in WT retina [2]; WT mice, co-injection with retinaldehyde, 3-7 days before imaging, mean±SEM
  percentage of YO-PRO-1 positive cells, retinaldehyde co-injected with DEAB: 7.65±1.34%
RGCs in WT retina [2]; WT mice, mean±SEM
  percentage of YO-PRO-1 positive cells: 7.47±1.21%
RGCs in WT retina [2]
  Yo-Pro-1 labeling of WT-RGCs, result in words: caused no change in Yo-Pro-1 labeling

## TNP-ATP
RGCs in WT retina [2]; WT mice injected with ATRA, TNP-ATP bath-applied ex vivo or BMS-493 co-injected, mean±SEM
  percentage of YO-PRO-1 positive cells, ATRA-induced labeling with blocker: 0.39±0.31%
RGCs in WT retina [4]; WT retina injected with ATRA plus liarozole, TNP-ATP bath-loaded, mean±SEM
  Photoswitch Index (PI) with QAQ, ATRA plus liarozole with TNP-ATP: 0.19±0.14
RGCs in WT retina [4]; WT retina, TNP-ATP bath-loaded
  effect on QAQ photosensitization induced by ATRA plus liarozole, in words: blocked by TNP-ATP

## Clc1cccc(C(c2ccc3[nH]cnc3c2)n2ccnc2)c1 (stereo not shown) [liarozole]
RGCs in WT retina [2]; WT mice, mean±SEM
  percentage of YO-PRO-1 positive cells: 8.66±1.36%
RGCs in WT retina [2]
  Yo-Pro-1 labeling of WT-RGCs, result in words: had no effect by itself
RGCs in WT retina [4]; WT retina, 3-7 days after intravitreal injection
  QAQ photosensitization of WT retina, in words: Neither ATRA nor liarozole alone enabled significant QAQ photosensitization
RGCs in WT retina [4]; WT retina, 3-7 days after intravitreal injection, QAQ 300 μM, mean±SEM
  Photoswitch Index (PI) with QAQ: 0.27±0.13

## CCN(Cc1ccccc1)c1ccc(/N=N/c2ccc(NC(=O)C[N+](CC)(CC)CC)cc2)cc1 [BENAQ, benzylethylamino-azobenzene-quaternary ammonium]
RGCs in rd1 retina [3]; white light/darkness
  Photoswitch Index (PI) of BENAQ: 0.56±0.03

## Cc1ccc(Cl)c(Nc2ccccc2C(=O)O)c1Cl [Meclofenamic acid]
Gap junctions
  effect on RGC light responses: augments RGC light responses by reducing hyperactivity
